Test results: PMC11912270, “Synthesis and SAR Studies of Acyl-Thiourea Platinum(II) Complexes Yield Analogs with Dual-Stage Antiplasmodium Activity” (ACS Medicinal Chemistry Letters, 2025)
Read-outs that look alike come from different tables or passages of the source.

Columns and labels:
ABS parasites = assay: Dual point activity against ABS parasites; type: cell-based, Plasmodium falciparum; conditions: single biological repeat
Source text: Table S2: Dual point activity of platinum(II) complexes against ABS parasites, early- and late-
stage gametocytes. Values are averaged from technical triplicates performed for a single

[1] = system: Chinese hamster ovary (CHO) cell line; assay: MTT cytotoxicity assay; type: cell-based; conditions: 48 h, read-out: CHO IC50
Protocol: 1.6.In vitro cytotoxicity assay
A 3-(4,5-dimethylthiazol-2-yl)-2,5-diphenyltetrazoliumbromide (MTT) assay was used to screen the metal complexes against the mammalian Chinese hamster ovarian (CHO) cell line.
A stock solution of each compound (2 mg/mL) in DMSO was prepared and kept at -20 °C until needed. Emetine was used as a reference drug. A starting concentration of 100 µg/mL was used, and serially diluted ten-fold using a complete medium to give the lowest concentration of 0.001 µg/mL (6 dilutions). The plates containing the CHO cells under drug pressure were […]
Plates containing the drug and cell suspension were developed by adding 25 μL of sterile MTT (Thermo Fisher Scientific) (25 µL) to each well, followed by 4 h […]
of incubation at room temperature in the dark. The plates were then centrifuged, and the supernatant was removed via aspiration. Sample absorbance was read at a wavelength of 540 […]
analysis via GraphPad Prism v.4.0 software. The IC50 values were determined for each compound were determined from the dose-response curves. […]

[2] = Single-point microsomal metabolic stability, mouse; type: in vitro ADME; conditions: for Microsomal metabolic stability (% remaining after 30 min) Mouse: mouse liver microsomes, 1 µM
Protocol: (§1) 1.8. Microsomal metabolic stability studies […]
(§2) rat IGS, Xenotech), and mouse (male mouse CD1, Xenotech) liver microsomes (0.4 mg/ml) for 30 min at 37 °C. Reactions were quenched by adding ice-cold acetonitrile containing […]
(§3) disappearance of the parent compound. Half-life, clearance, and hepatic excretion ratios were determined using standard equations.6,7 Propranolol. […]

[3] = system: early-stage gametocytes (NF54-PfS16-GFP-Luc); assay: Luciferase reporter assay, early-stage gametocytes; type: cell-based, Plasmodium falciparum; conditions: for EG (% inhibition) 1 µM / EG (% inhibition) 5 µM: single biological repeat; for IC50: early (II/III) gametocytes, luciferase, 48 h, read-out: EG IC50
Protocol: (§4) All the complexes were tested for their early- and late-stage gametocyte activity in a dual-point assay (1 μM and 5 μM). […]
(§5) 1.5.In vitro activity against gametocyte stages
(§6) PfNF54 gametocytes were prepared and isolated according to the method reported by Reader […]
(§7) The in vitro gametocyte activity of the synthesized complexes was determined using a luciferase reporter line-based assay.
(§8) NF54-PfS16-GFP-Luc parasites were used for the stage-specific assessment of gametocytocidal activity. Early-stage gametocyte (stage I-III) experiments were performed on day 5 (representing >90% of early-stage and late-stage gametocyte (stages IV/V) experiments were performed on day 10. In each experiment, assays were set up with the use of 2-3% […]
(§9) Luciferase activity was determined in 30 µL parasite lysates by adding luciferin substrate (30 µL) (Promega Luciferase Assay System) at room temperature. […]

PfK1 ABS parasites = type: cell-based, Plasmodium falciparum; conditions: for IC50: ABS, SYBR Green I, 96 h, mean ± S.E.; for RI (resistance index): RI = PfK1 IC50/PfNF54 IC50
Protocol: (§10) The parasites were incubated under drug […]
(§11) incubation, parasite survival was determined by adding equal volumes of parasite suspension (100 µL) and SYBR Green I lysis buffer (0.2% µL/mL of 10 000x SYBR Green I, 20 mM Tris-HCl, pH 7.5, 5 mM EDTA, 0.008% saponin (w/v) and 0.08% Triton x-100). This was incubated for 1 hour at room temperature in the dark. […]

Cyclic voltammetry = type: physicochemical; conditions: for Epa1: anodic peak potential; for Epa1 / Epc1: 0.1 V/s; for Epc1: cathodic peak potential; for Epc2: second nonreversible reduction
Source text: It is known that Fe^2+/Fe^3+ redox chemistry has an important role in the bioactivity of ferrocene derivatives.[33] The production of reactive oxygen species (ROS) is one of the modes of action of ferroquine and other ferrocene derivatives[34] and is linked to the correlation between their bioactivity and electrochemical behavior. We determined whether a similar correlation could be made for the mixed-ligand platinum(II) complexes reported herein given that metal centers have the potential to be oxidized and reduced. The electrochemistry of the complexes was studied using cyclic voltammetry (CV), which uses a triangular potential waveform. The CV experiments were performed in either dry MeOH or DMF containing tetrabutylammonium chloride (TBACl) as the supporting electrolyte. The working electrode was glassy carbon with a platinum wire as the counter electrode and Ag/AgCl as the reference. The anodic (Epa) and cathodic (Epc) peak potentials at 0.1 V/s and half-wave potentials (E1/2) were measured (Table 3). All of the tested complexes undergo reversible one-electron Pt^2+/Pt^+ reductions (Figures S38–S46). Complexes C2, C4, and C8 undergo a second nonreversible reduction (Epc2), which is most likely ligand-based and linked to reductions of the substituent on the bpy. Looking at SAR2, the more electron-withdrawing the substituent, the […] the E1/2 (V vs Fe/Fe^+) value was. This trend was expected, as a more electron-withdrawing substituent reduces the electron density around the metal center, making it easier for the metal to be reduced from Pt^2+ to Pt^+. […] This is also the case for other bpy-containing platinum(II) complexes that only undergo reductions.[35],[36] […]
For the cyclic voltammetry experiments a solution of the test compound (1 x 10-3) in DMSO (3 mL) is added to the electrolyte solution (0.1 M tetrabutylammonium chloride (TBACl) in DMSO). The electrochemical measurements were obtained using a Basi Epsilon Eclipse Electrochemical Analyzer Potentiostat and the CV graphs were generated using Excel. The working electrode was glassy carbon (GC) with platinum wire as the counter electrode (CE) and Ag/AgCl as the reference. […]

PfNF54 ABS parasites = assay: SYBR Green I-based proliferative assay, PfNF54 ABS parasites; type: cell-based, Plasmodium falciparum; conditions: ABS, SYBR Green I, 96 h; mean ± S.E., N = 3 (no S.E.: N = 1)
Protocol: as §10, §11

[4] = system: late-stage gametocytes (NF54-PfS16-GFP-Luc); assay: Luciferase reporter assay, late-stage gametocytes; type: cell-based, Plasmodium falciparum; conditions: for LG (% inhibition) 1 µM / LG (% inhibition) 5 µM: single biological repeat; for IC50: late (IV/V) gametocytes, luciferase, 48 h, read-out: LG IC50
Protocol: as §4, §5, §6, §7, §8, §9

[5] = Single-point microsomal metabolic stability, human; type: in vitro ADME; conditions: human liver microsomes; for Microsomal metabolic stability (% remaining after 30 min) Human: 1 µM
Protocol: as §1, §2, §3

[6] = Kinetic solubility by HPLC (pH 6.5); conditions: for Aqueous solubility pH 6.5: kinetic, HPLC
Protocol: 1.7. Kinetic solubility by HPLC (pH 6.5)
Solubility was measured at pH 6.5 using an adapted miniaturized shake-flask method, in 96-well plate format.4,5 Briefly, 4 µL of a 10 mM stock in DMSO was added to a 96-well plate and evaporated using a GeneVac system. Phosphate buffer pH 6.5 was then added to the wells […]
At the end of this incubation, the […]
in the analysis plate. Analysis was then performed by HPLC-DAD and the solubility of each sample was determined from the corresponding calibration curve. […]

PfNF54 = assay: 72 h pLDH assay, PfNF54 (precursor compounds); type: cell-based, Plasmodium falciparum; conditions: for inhibition of Pf proliferation: maximum concentration of 5 μM, PfNF54; for IC50: read-out: PfNF54 IC50
Protocol: Lastly, the pharmacological effect of substitution with a methyl group at different positions on the bpy ring was determined (SAR4). Changing from the 4,4′-positions (C2) to the 5,5′-positions (C14) improved the PfNF54 activity by 5-fold, whereas changing to the 6,6′-positions (C15) decreased the activity by 2-fold.

PfK1 = conditions: cited from earlier work
Pf3D7 strain = conditions: cited from earlier work
[7] = half-wave potential corrected to ferrocene

Compound | ABS (% inhibition) 1 µM (ABS parasites) | ABS (% inhibition) 5 µM (ABS parasites) | IC50 ([1]; cytotoxicity, MTT, N, n = 1, 3) | Microsomal metabolic stability (% remaining after 30 min) Mouse [2] | EG (% inhibition) 1 µM [3] | EG (% inhibition) 5 µM [3] | IC50 [3] | IC50 (PfK1 ABS parasites) | Epa1 (Cyclic voltammetry) | Epc1 (Cyclic voltammetry) | IC50 (PfNF54 ABS parasites) | LG (% inhibition) 1 µM [4] | LG (% inhibition) 5 µM [4] | IC50 [4] | Microsomal metabolic stability (% remaining after 30 min) Human [5] | also measured
OCCN(CCO)C1=NC(c2ccccc2)=[O+][Pt-2]2([S]1)[n+]1ccccc1-c1cccc[n+]12.[Cl-] [C3] | 68.7 % inhibition | 103.1 % inhibition | > 50 µM | 75 % remaining | 26.9 % inhibition | 0.0 % inhibition | > 20 µM | 0.184 ± 0.022 µM | –1.210 V | –1.014 V | 0.142 ± 0.012 µM | 14.8 % inhibition | 39.8 % inhibition | > 20 µM | 72 % remaining | 
CS(=O)(=O)c1ccc(-c2cnc(N)c(-c3ccc(C(F)(F)F)nc3)c2)cc1 [MMV390048, reference compound] |  |  |  |  |  |  |  |  |  |  |  |  |  |  |  | solubility at 24 h ([6]; phosphate buffer, 25 °C, pH 6.5, aqueous buffer, thermodynamic from solid): < 5 µM; remaining at 0.5 h, 1 µM ([2]; male, CD1, mouse liver microsomes, 30 min, read-out: Microsomal metabolic stability (% remaining after 30 min) Mouse): > 95%; remaining at 0.5 h, 1 µM ([5]; both sexes, 30 min, read-out: Microsomal metabolic stability (% remaining after 30 min) Human): > 95%
COc1cc[n+]2c(c1)-c1cc(OC)cc[n+]1[Pt-2]21[O+]=C(c2ccccc2)N=C(N(CCO)CCO)[S]1.[Cl-] [C4] | 67.1 % inhibition | 99.8 % inhibition | > 50 µM | 88 % remaining | 6.8 % inhibition | 9.1 % inhibition | > 20 µM | 0.164 ± 0.007 µM | –1.136 V | –1.064 V | 0.266 ± 0.029 µM | 14.8 % inhibition | 54.4 % inhibition | > 20 µM | 63 % remaining | Aqueous solubility pH 6.5 [6]: 195 μM; RI (resistance index) (PfK1 ABS parasites): 0.6; E1/2 (Cyclic voltammetry; half-wave potential): –1.100 V vs Ag/Ag^+; E1/2 (Cyclic voltammetry; [7]): –1.640 V vs Fe/Fe^+; Epc2 (Cyclic voltammetry): –1.515 V vs Ag/Ag^+
[Cl][Pt-2]([Cl])([Cl])[Cl].[K+].[K+] [K2PtCl4, potassium tetrachloroplatinate] |  |  | > 50 µM |  |  |  |  |  |  |  |  |  |  |  |  | inhibition of Pf proliferation (PfNF54): did not inhibit Pf proliferation; IC50 (PfNF54; precursor compounds, 72 h pLDH assay): > 5 µM
O=C(NC(=S)N(CCO)CCO)c1ccccc1 [compound 2] |  |  |  |  |  |  |  |  |  |  |  |  |  |  |  | IC50 ([1]; Cricetulus griseus, CHO): > 50 µM; IC50 (PfNF54; Plasmodium falciparum, 72 h): > 5 µM; inhibition of Pf proliferation (PfNF54): did not inhibit Pf proliferation
ferroquine [FQ] |  |  |  |  |  |  |  |  |  |  |  |  |  |  |  | fold increase in activity compared to CQ (PfK1): 25 fold; fold increase in activity compared to CQ (Pf3D7 strain): 1.7 fold
Cc1cc[n+]2c(c1)-c1cc(C)cc[n+]1[Pt-2]21[O+]=C(c2ccccc2)N=C(N(CCO)CCO)[S]1.[Cl-] [C2] | 70.9 % inhibition | 104.0 % inhibition | > 50 µM | 72 % remaining | 19.9 % inhibition | 7.9 % inhibition | > 20 µM | 0.541 ± 0.044 µM | –1.074 V | –1.016 V | 1.42 ± 0.276 µM | 11.3 % inhibition | 25.5 % inhibition | > 20 µM | 70 % remaining | Aqueous solubility pH 6.5 [6]: 170 μM; RI (resistance index) (PfK1 ABS parasites): 0.4; E1/2 (Cyclic voltammetry; half-wave potential): –1.045 V vs Ag/Ag^+; E1/2 (Cyclic voltammetry; [7]): –1.585 V vs Fe/Fe^+; Epc2 (Cyclic voltammetry): –1.084 V vs Ag/Ag^+
